In patent US10330678B2, “Methods and systems for modulating hormones and related methods, agents and compositions” (California Institute of Technology, priority 2010, dated 2019):
Structures can show the parent of a compound that is named as a salt. Where two headings read alike, the source gives them in different places.

Tests used:
NCI-H716 cells = assay: GLP-1 release from endocrine cell line NCI-H716 (GLP-1 RIA kit); assay type: cell-based
Procedure: Endocrine cell lines of NCI-H716 cells were used for testing release of GLP-1 triggered by various possible ligands.
NCI-H716 cells were incubated in serum-free DME/F12 media containing vehicle (0.01% DMSO) with a candidate ligand at the indicated concentrations. Secretion active GLP-1 in media was measured with GLP-1 RIA kit (Linco Research, Missouri, USA). The experiments for all groups have been conducted in duplicates.

male Sprague-Dawley rats = tested on: male Sprague-Dawley rats
Procedure: The rats were then euthanized 45 min later and removed blood via intracardiac puncture and measured PYY in the blood by a recently modified radioimmunoassay using CURE antibody 9153 (Gift of J Reeve, University of California, Los Angeles.).

STC-5 cells = settings: 30 minutes incubation, PTC at various concentrations, versus vehicle (FIGS. 24A, 24B)
Procedure: In GLP-1 release experiments, selected endocrine cell lines of STC-5 cells or NCI-H716 cells were used for testing release of GLP-1 triggered by various possible ligands. Endocrine cells were incubated in serum-free DME/F12 media containing vehicle (0.01% DMSO) and a candidate ligand of certain concentration and for a certain period of incubation time. After incubation, secretion active GLP-1 in media was measured with GLP-1 RIA kit (Linco Research®, Missouri, USA).
Secretion of active GLP-1 in media was measured with GLP-1 RIA kit (Linco Research, Missouri, USA). The experiments for all groups have been conducted in duplicates.

bitter taste = settings: average; cited from earlier work
hTAS2R47 = biological target: T1, hTAS2R47 (Homo sapiens, UniProt P59541); settings: observed by Pronin et al. [Pronin 2004]; cited from earlier work
T1 sequence (P59541 1-319): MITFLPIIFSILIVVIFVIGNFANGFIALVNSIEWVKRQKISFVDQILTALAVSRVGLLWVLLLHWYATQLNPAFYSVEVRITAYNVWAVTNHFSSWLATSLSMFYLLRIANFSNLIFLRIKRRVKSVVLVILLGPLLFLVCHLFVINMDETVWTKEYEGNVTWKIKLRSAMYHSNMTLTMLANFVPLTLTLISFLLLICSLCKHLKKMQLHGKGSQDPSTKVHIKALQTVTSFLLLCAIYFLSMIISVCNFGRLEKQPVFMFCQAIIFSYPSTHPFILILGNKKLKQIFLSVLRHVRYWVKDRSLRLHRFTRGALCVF

[1] = summary of Table 2, versus control
[2] = NCI-H716 cells, ligand concentration 10 μm, duplicates, control 58.47

| SMILES | effect on release of GLP-1 from NCI-H716 cells (in words) (NCI-H716 cells; [1]) | GLP-1 (pmol/mg protein) (NCI-H716 cells; [2]) | further results |
| --- | --- | --- | --- |
| CCCC(=O)O [Butyrate, reference compound] | – | – | GLP-1 (pmol/mg protein) (NCI-H716 cells; NCI-H716 cells, ligand concentration 2.5 mM, duplicates, control 58.47): 100.77 pmol/mg protein |
| NC(=S)Nc1ccccc1 [PTC, Phenylthiocarbamide] | – | – | GLP-1 (pmol/mg protein) (NCI-H716 cells): 98.73 pmol/mg protein; effect on release of GLP-1 from NCI-H716 cells (in words) (NCI-H716 cells): increase the release of GLP-1; change of PYY levels versus saline gavaged rats (in words) (male Sprague-Dawley rats; 5 mM PTC in 5 ml saline by gastric gavage, 45 min): doubling; PYY in the blood (male Sprague-Dawley rats; 5 mM PTC in 5 ml saline by gastric gavage, 45 min later, n=5, saline rats 71+/−35 pM): 154 ± 44 pM; volume of fluid remaining in the stomachs (male Sprague-Dawley rats; at sacrifice 45 min after gavage of 5 ml, saline-treated rats less than 0.5 ml): 1 to 2 mL; effect on GLP-1 release from STC-5 cells (in words) (STC-5 cells): large effect |
| C=C[C@H]1C[N@@]2CC[C@H]1C[C@H]2[C@H](O)c1ccnc2ccc(OC)cc12 [quinine] | – | – | threshold for stimulation of bitter taste (bitter taste): 8 µM |
| CC(C)=CCC[C@]1(C)[C@@H](CC=C(C)C)C[C@@]2(CC=C(C)C)C(=O)[C@]1(C(=O)C(C)C)C(=O)C(CC=C(C)C)=C2O [Hyperforin] | increase the release of GLP-1 | – | GLP-1 (pmol/mg protein) (NCI-H716 cells; NCI-H716 cells, ligand concentration 5 μg/ml, duplicates, control 58.47): 104.87 pmol/mg protein |
| CC1(C)[C@@H](O[C@H]2O[C@H](C(=O)O)[C@@H](O)[C@H](O)[C@H]2O[C@@H]2O[C@H](C(=O)O)[C@@H](O)[C@H](O)[C@H]2O)CC[C@]2(C)[C@H]3C(=O)C=C4[C@@H]5C[C@@](C)(C(=O)O)CC[C@]5(C)CC[C@@]4(C)[C@]3(C)CC[C@@H]12 [Glycyrrhizic acid ammonium salt] | increase the release of GLP-1 | 71.95 pmol/mg protein | – |
| COc1cc(/C=C/C(=O)CC(=O)/C=C/c2ccc(O)c(OC)c2)ccc1O [Curcumin] | – | 61.52 pmol/mg protein | – |
| CCCCCCCCCCCC1=C(O)C(=O)C=C(O)C1=O [Embelin] | – | 83.55 pmol/mg protein | – |
| c1c2c(cc3c1OCO3)-c1cc3ccc4c(c3c[n+]1CC2)OCO4 [Coptisine chloride] | increase the release of GLP-1 | 121.35 pmol/mg protein | – |
| C=CCSC [Allyl methyl sulfide] | increase the release of GLP-1 | 91.547 pmol/mg protein | – |
| O=c1oc2c(O)c(O)cc3c(=O)oc4c(O)c(O)cc1c4c23 [Ellagic acid] | increase the release of GLP-1 | 77.25 pmol/mg protein | – |
| O=C1NS(=O)(=O)c2cc([N+](=O)[O-])ccc21 [Compound 6NS, 6-Nitro saccharin] | – | – | activation of hTAS2R47 (in words) (hTAS2R47): activated the receptor to a lesser extent |
| COc1ccc2cc3[n+](cc2c1OC)CCc1cc2c(cc1-3)OCO2 [Berberine chloride] | increase the release of GLP-1 | 86.41 pmol/mg protein | – |
| O=C1NS(=O)(=O)c2cccc([N+](=O)[O-])c21 [Compound 4NS, 4-Nitro saccharin] | – | – | activation of hTAS2R47 (in words) (hTAS2R47): very weak inverse agonist |
| CC[N+](CC)(CC(=O)Nc1c(C)cccc1C)Cc1ccccc1 [Denatonium] | – | – | activation of hTAS2R47 (in words) (hTAS2R47): activated strongest |
| O=C(O[C@@H]1Cc2c(O)cc(O)cc2O[C@@H]1c1cc(O)c(O)c(O)c1)c1cc(O)c(O)c(O)c1 [Epigallocatechin gallate] | increase the release of GLP-1 | – | GLP-1 (pmol/mg protein) (NCI-H716 cells; NCI-H716 cells, ligand concentration 1 μm, duplicates, control 58.47): 91.15 pmol/mg protein |
| CC(=O)c1c(O)c(C)c(O)c(Cc2c(O)c3c(c(C(=O)/C=C/c4ccccc4)c2O)OC(C)(C)C=C3)c1O [Rottlerin] | increase the release of GLP-1 | – | GLP-1 (pmol/mg protein) (NCI-H716 cells; NCI-H716 cells, ligand concentration 0.05%, duplicates, control 58.47): 111.18 pmol/mg protein |
